Assay results taken from publication PMC4297708 (Drug and alcohol dependence, 2014).
Entries after “also recorded” stand apart in the source; their conditions may differ. Like-named read-outs stand apart in the source and are kept apart here.

Columns and labels:
[1] = system: rats; conditions: ref Hiranita et al., cited from earlier work; for effect on cocaine self-administration dose-effect curve: rats, 2014
[2] = system: sigma receptors; conditions: ref Hiranita et al., 2014; cited from earlier work
[3] = system: CB1Rs; conditions: increased efficacy of CP 55940 in calcium mobilization; ref Navarro et al., 2009; cited from earlier work
[4] = system: mice; conditions: cited from earlier work
[5] = system: mice; conditions: range of behaviorally active doses, ref Carroll et al., 2004; cited from earlier work
[6] = system: rats; conditions: rats trained to discriminate cocaine from saline; ref Carroll et al., 2004; cited from earlier work
[7] = system: rats; conditions: ref Hiranita et al., 2014; cited from earlier work
[8] = system: DAT; conditions: highest dose studied, 56 mg/kg; ref Hiranita et al., 2014; cited from earlier work
[9] = system: rats; conditions: ref Katz et al., 1999b; cited from earlier work
[10] = system: vesicular monoamine transporter 2 (VMAT2); conditions: measured with Tyramine, ref Partilla et al., 2006, cited from earlier work; for EC50: read-out: VMAT2 Release EC50
[11] = compared to amphetamine; ref Rothman et al., 2005; cited from earlier work
[12] = cited from earlier work
[13] = system: rats; conditions: ref Rothman et al., 2005; cited from earlier work
[14] = biological target: T1, dopamine transporter (DAT) (Rattus norvegicus, UniProt P23977); assay: DAT uptake inhibition assay; format: biochemical
T1 sequence (P23977 whole entry): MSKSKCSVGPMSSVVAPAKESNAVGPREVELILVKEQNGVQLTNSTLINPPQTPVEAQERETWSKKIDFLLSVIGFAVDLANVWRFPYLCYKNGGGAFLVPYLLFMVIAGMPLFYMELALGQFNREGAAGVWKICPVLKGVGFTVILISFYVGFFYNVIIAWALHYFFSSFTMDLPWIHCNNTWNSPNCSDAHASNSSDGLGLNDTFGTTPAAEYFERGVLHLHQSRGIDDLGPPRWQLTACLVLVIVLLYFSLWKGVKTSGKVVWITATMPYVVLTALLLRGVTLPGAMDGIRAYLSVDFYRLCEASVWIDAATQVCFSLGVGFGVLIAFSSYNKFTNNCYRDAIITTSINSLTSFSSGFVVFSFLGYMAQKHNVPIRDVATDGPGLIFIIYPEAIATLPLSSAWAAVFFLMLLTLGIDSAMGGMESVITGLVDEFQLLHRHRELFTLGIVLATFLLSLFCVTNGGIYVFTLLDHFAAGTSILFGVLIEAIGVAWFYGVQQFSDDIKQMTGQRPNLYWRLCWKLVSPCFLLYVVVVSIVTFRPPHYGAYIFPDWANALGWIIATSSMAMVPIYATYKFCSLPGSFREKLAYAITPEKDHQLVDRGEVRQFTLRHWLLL

[15] = biological target: T2, SERT (Rattus norvegicus, UniProt P31652); assay: 5-HT release assay in synaptosomes; format: biochemical; conditions: read-out: 5-HT Release EC50; rat brain synaptosomes; mean ± SD, n=3; Table 4
T2 sequence (P31652 whole entry): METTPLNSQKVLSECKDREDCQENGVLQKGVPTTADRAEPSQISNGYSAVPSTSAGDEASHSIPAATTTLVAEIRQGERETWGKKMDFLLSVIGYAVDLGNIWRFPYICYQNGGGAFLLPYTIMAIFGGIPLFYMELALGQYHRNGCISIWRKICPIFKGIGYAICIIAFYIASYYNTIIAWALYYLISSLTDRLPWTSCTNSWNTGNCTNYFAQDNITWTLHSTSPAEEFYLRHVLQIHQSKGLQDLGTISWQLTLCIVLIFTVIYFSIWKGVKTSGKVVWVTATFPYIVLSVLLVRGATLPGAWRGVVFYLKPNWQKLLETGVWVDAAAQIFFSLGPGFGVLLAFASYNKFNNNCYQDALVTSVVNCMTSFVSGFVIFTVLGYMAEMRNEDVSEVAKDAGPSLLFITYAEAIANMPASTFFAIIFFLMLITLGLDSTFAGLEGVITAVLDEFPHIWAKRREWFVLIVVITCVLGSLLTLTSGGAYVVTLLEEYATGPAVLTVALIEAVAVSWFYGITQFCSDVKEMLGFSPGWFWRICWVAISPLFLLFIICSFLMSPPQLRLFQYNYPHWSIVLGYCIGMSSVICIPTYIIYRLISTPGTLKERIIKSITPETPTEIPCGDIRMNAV

[16] = system: rats; assay: Horizontal locomotor activity; format: in vivo; conditions: male rats, 1 or 3 mg/kg i.v.; Fig. 7, Fig. 8
[17] = system: rats; assay: In vivo microdialysis in the n. accumbens; conditions: male rats, 1 or 3 mg/kg i.v.; for extracellular (dialysate) DA in n. accumbens: Fig. 7, Fig. 8
[18] = biological target: T1, dopamine transporter (DAT); assay: biochemical; conditions: for DA/5-HT Ratio: ratio of release potencies
[19] = system: DAT Y335A; conditions: ref Loland et al., 2008; cited from earlier work
[20] = ref Loland et al., 2012; cited from earlier work
[21] = system: mice; conditions: mice trained to discriminate cocaine (10 mg/kg) from saline; ref Loland et al. 2012; cited from earlier work
[22] = system: human; conditions: humans; ref Dackis et al., 2003; Malcolm et al., 2006; Hart et al., 2008; cited from earlier work
[23] = biological target: T1, dopamine transporter (DAT); conditions: read-out: DAT UI IC50; rat brain synaptosomes; ref Yu et al., 2000; cited from earlier work
[24] = biological target: T2, SERT; conditions: read-out: 5-HT Release EC50; rat brain synaptosomes; ref Yu et al., 2000; cited from earlier work
[25] = read-out: DAT UI IC50, rat brain synaptosomes, mean ± SD, n=3, Table 3
[26] = rat brain synaptosomes, Table 4
[27] = read-out: DA Release EC50, rat brain synaptosomes, mean ± SD, n=3, Table 4
[28] = rat brain synaptosomes, % maximal release, Table 3
[29] = read-out: DA Release EC50, rat brain synaptosomes, mean ± SD, n=3, Table 3

Cc1ccc([C@H]2C[C@@H]3CC[C@H]([C@H]2c2cc(-c4ccc(Cl)cc4)no2)N3C)cc1 [RTI-371, 3β-(4-methylphenyl)-2β-[3-(4-chlorophenyl)isoxazol-5-yl]tropane]
effect on cocaine self-administration dose-effect curve [1]: dose-related decreases in the maximum self-administration of cocaine | affinity at sigma receptors [2]: relatively low affinity at sigma receptors | modulation of CB1Rs [3]: positive-allosteric modulation of CB1Rs | effect on cocaine-induced locomotor stimulation ([4]; preliminary report, ref Navarro et al., 2009): blocked cocaine-induced locomotor stimulation | locomotor activity [5]: failed to stimulate locomotor activity | substitution for cocaine (drug discrimination) [6]: did not substitute | self-administration of the compound versus vehicle [7]: not self-administered at rates above those obtained with vehicle | rate of displacement of [125I]RTI-121 [8]: 0.320 %/min

CN1[C@@H]2CC[C@H]1C[C@@H](OC(=O)C(CO)c1ccccc1)C2 (stereo partly drawn) [atropine]
effect on effects of cocaine in drug discrimination procedures [9]: potentiation of effects of cocaine

CC(N)Cc1ccc2ccccc2c1 (stereo not drawn) [PAL-287]
EC50 [10]: 1.25 ± 0.23 µM | reinforcing effects [11]: lacked strong reinforcing effects | locomotor stimulant effect ([12]; compared to amphetamine, ref Rothman et al., 2005): weak locomotor stimulant | DA release in vivo (microdialysis) [13]: released much less DA than expected

CCCC(C(=O)c1ccc2c(c1)OCO2)N1CCCC1 (stereo not drawn) [MDPV]
IC50 [14, 25]: 4.1 ± 0.06 nM

Cc1ccc(CC(C)N)cc1 (stereo not drawn) [PAL-313]
EC50 [15]: 53.4 ± 4.1 nM | locomotor stimulation (horizontal locomotor activity) [16]: lowest levels of locomotor stimulation | extracellular (dialysate) DA in n. accumbens [17]: lowest level of DA release in vivo | extracellular 5-HT in n. accumbens ([17]; Fig. 8): highest level of 5-HT release | DA/5-HT Ratio [18, 26]: 1.2 | EC50 [18, 27]: 44.1 ± 2.6 nM

CN1[C@@H]2C[C@@H](OC(=O)[C@H](CO)c3ccccc3)C[C@H]1[C@@H]1O[C@@H]12 [scopolamine]
effect on effects of cocaine in drug discrimination procedures [9]: potentiation of effects of cocaine

CN[C@@H](C)Cc1ccccc1 [Methamphetamine]
EC50 [18]: 24.5 ± 2.1 nM

Cc1cccc(CC(C)N)c1 (stereo not drawn) [PAL-314]
EC50 [15]: 218 ± 22 nM | DA/5-HT Ratio [18, 26]: 6.5 | EC50 [18, 27]: 33.3 ± 1.3 nM

CC(N)Cc1cccc(F)c1 (stereo not drawn) [PAL-353]
EC50 [15]: 1940 ± 202 nM | DA/5-HT Ratio [18, 26]: 80 | EC50 [18, 27]: 24.2 ± 1.1 nM

CCN[C@@H](C)Cc1ccc2ccccc2c1 [PAL-1045]
locomotor stimulation (horizontal locomotor activity) [16]: smaller when compared to the full efficacy releaser | extracellular (dialysate) DA in n. accumbens [17]: extracellular DA concentrations increase; also recorded: magnitude of effect on dialysate DA is lower than that of a full efficacy releaser | DA Release EMAX [18, 28]: 78 ± 5% | EC50 [18, 29]: 46 ± 11 nM

CC(NC(C)(C)C)C(=O)c1cccc(Cl)c1 (stereo not drawn) [Bupropion]
IC50 [14]: 658 ± 178 nM

NCCc1ccccc1 [Phenethylamine]
EC50 [18]: 39.5 ± 1.8 nM

CCCNC(C)C(=O)c1ccccc1 (stereo not drawn) [PAL-359]
DA UI IC50 (nM) ([14]; rat brain synaptosomes, mean ± SD, n=3 in triplicate, Table 1): inactive

CNC(C)C(=O)c1ccc(C)cc1 (stereo not drawn) [Mephedrone]
EC50 [18]: 49.1 ± 3.1 nM

CNC(C)Cc1ccc2c(c1)OCO2 (stereo not drawn) [MDMA]
DA Release EMAX [18]: 103 ± 2% | EC50 ([18]; read-out: DA Release EC50): 108 ± 10 nM

CC(C)(N)Cc1ccccc1 [Phentermine]
VMAT2 Release EC50 (μM) [10]: lack VMAT2 activity | EC50 [10]: > 100 µM | EC50 [18]: 262 ± 21 nM

CCCCN1[C@@H]2CC[C@H]1CC(OC(c1ccc(F)cc1)c1ccc(F)cc1)C2 (stereo partly drawn) [JHW 007]
modulation of CB1Rs [3]: positive-allosteric modulation of CB1Rs | effect on cocaine-induced locomotor stimulation ([4]; CB1R wild-type and knockout mice, co-injection, ref Desai et al., 2014): significantly blunted the locomotor stimulant effects of cocaine | effect on cocaine-induced locomotor stimulation ([4]; DA D2R knockout and wild-type mice, ref Desai et al., 2014): blocked the stimulant effects of cocaine equally in both knockout and wild-type mice

Cc1cccc(N2CCNCC2)c1C [PAL-218, 2,3-Dimethylphenylpiperazine]
DA Release EMAX [18, 28]: 66 ± 1% | EC50 [18, 29]: 1210 ± 118 nM

CC(N)Cc1ccc(F)cc1 (stereo not drawn) [PAL-303]
EC50 [15]: 939 ± 76 nM | DA/5-HT Ratio [18, 26]: 18 | EC50 [18, 27]: 51.5 ± 1.7 nM

COC(=O)[C@H]1[C@@H](OC(=O)c2ccccc2)C[C@@H]2CC[C@H]1N2C [cocaine]
loss in potency for Y335A compared with wild-type DAT [19]: ~100 fold

NC(=O)C[S+]([O-])C(c1ccccc1)c1ccccc1 (stereo not drawn) [modafinil]
DA concentrations in the nucleus accumbens shell [20]: increased DA concentrations in the nucleus accumbens shell, though also to a lesser extent than cocaine | substitution for cocaine (drug discrimination) [21]: fully substituted for cocaine | effect on cocaine-induced euphoria [22]: blunted cocaine-induced euphoria | locomotor activity ([12]; ref Cao et al., 2010): stimulated locomotor activity, though to a lesser extent than cocaine

CCNC(C)Cc1ccccc1 (stereo not drawn) [PAL-99]
DA Release EMAX [18, 28]: 111 ± 13%

CNC(C)Cc1ccc2ccccc2c1 (stereo not drawn) [PAL-1046]
DA Release EMAX [18, 28]: 101 ± 3% | EC50 [18, 29]: 10 ± 1 nM

CC1NCCOC1c1ccccc1 (single isomer, unassigned; (+)) [(+)-Phenmetrazine]
VMAT2 Release EC50 (μM) [10]: completely inactive | EC50 [10]: > 100 µM | EC50 [18]: 87.4 ± 7.8 nM

c1ccc(CN2CCNCC2)cc1 [Benzylpiperazine]
VMAT2 Release EC50 (μM) [10]: lack VMAT2 activity | EC50 [10]: > 100 µM | EC50 ([18]; read-out: DAT Release EC50, mean ± SD, n=3, Table 5): 307 ± 19 nM

Cc1ccc(-c2cc([C@@H]3C4CCC(C[C@@H]3c3ccc(Cl)cc3)N4C)on2)cc1 (stereo partly drawn) [RTI-336]
effect on cocaine self-administration dose-effect curve [1]: dose-related leftward shifts in the cocaine self-administration dose effect curve | affinity at sigma receptors [2]: relatively low affinity at sigma receptors | substitution for cocaine (drug discrimination) [6]: fully substitutes | self-administration of the compound versus vehicle [7]: self-administered at levels greater than vehicle

Cc1ccccc1N1CCNCC1 [PAL-169, 2-Methylphenylpiperazine]
DA Release EMAX [18, 28]: 90 ± 1% | EC50 [18, 29]: 296 ± 20 nM

C[C@@H]1CN(CCCn2c3ccccc3c3ccccc32)C[C@H](C)N1 [rimcazole]
effect on cocaine self-administration [1]; 2011: blocked cocaine self-administration

CCNC(C)C(=O)c1ccccc1 (stereo not drawn) [N-Ethylpropion]
IC50 [23]: 1010 ± 80 nM | EC50 [24]: 2120 ± 98 nM

Fc1ccc(C(O[C@H]2C[C@H]3CC[C@@H](C2)N3CC2CC2)c2ccc(F)cc2)cc1 [JHW013]
locomotor activity ([12]; fast-onset BZT analogs, ref Li et al., 2011): stimulant effects that were substantially reduced compared to those of cocaine

Cc1ccc(N2CCNCC2)cc1 [PAL-233, 4-Methylphenylpiperazine]
IC50 [14, 25]: 9520 ± 436 nM
